Measured values taken from EP2292587A1, “PHARMACEUTICAL COMPOSITION FOR INHIBITING THE TRANSCRIPTION FACTOR INDUCIBLE BY HYPOXIA, MODULATORS OF PATHOLOGICAL PROCESSES OF ANGIOGENESIS, ONCOGENESIS, INFLAMMATION, APOPTOSIS, AND CELLULAR THERAPY” (Fundacion De La Comunidad Valenciana Centro De …, priority 2008, dated 2009).
Where two headings read alike, the source gives them in different places.

Columns and labels:
HIF = assay: luciferase cell assay based on the HIF response elements (HRE), HeLa 9XHRE-LUC; design: species or system human; conditions: Homo sapiens, HeLa
Source text: In order to identify direct inhibitors of the activity of HIF, a stable recombinant line was first constructed from the cervical tumor line, known in scientific literature as HeLa, which contained the deoxyribonucleic acid (DNA) sequences of the region located between positions -985 and -951 of the human vascular endothelial growth factor (hVEGF), repeated nine times (9X) and fused to the luciferase reporter gene (LUC). This plasmid, provided by Dr. Manuel Ortiz de Landazuri from the Hospital de La Princesa of Madrid, called 9XHRE-LUC, was prepared using a commercial kit (Endofree Maxi-Prep; Qiagen, Inc., Valencia, CA). The transfections were performed with FuGene6 (Roche, cat.1814443) according to the manufacturer's instructions, the µg DNA: µg FuGene ratio was 1:3. The transfected cell lines were generated by cotransfection with the vector pCMV-Hygrom which expressed a hygromycin resistance gene in mammalian cells, allowing the selection of the transfected clones. After 48 hours, the growth medium was substituted with fresh medium containing 100 µg/ml hygromycin (Sigma), the clones resistant to the antibiotic were collected and analyzed by means of RT-PCR to select the clone with the desired construct. Routinely, the HeLa 9XHRE-LUC cell line was maintained in exponential growth by means of performing subcultures in DMEM (Invitrogen-Life Technologies, Inc., Carlsbad, CA), supplemented with 10% inactivated fetal bovine serum (Whittacker Bioproducts), penicillin (50 IU/ml), streptomycin (50 µg/ml) (Invitrogen-Life Technologies, Inc., Carlsbad, CA). The cells were cultured at 37°C with a humidified atmosphere containing 5% CO2 and 300 nM Desferoxamine (DFX; Sigma St. Louis, MO).
The compounds of the Collection of the CIPF, coming from a selection of commercial collections of Sigma-Aldrich, were solubilized in DMSO at a final concentration of 5 mM and preserved at -80°C. The concentration of these compounds in the luciferase assay was 1 mcM finally in the well of the multi-well plate in which the reaction was carried out. The luciferase assays were performed in white 96-well plates (Valtecknova ref. 3917), using the kit Bright-Glo™ Luciferase Assay System (Promega, Inc., Madison, WI) following the instructions supplied by the manufacturer.
According to the methodology of the cell assay based on the HIF response elements (Example 1), the intermediate compounds of the synthesis and several synthesized analogs were tested to obtain the SAR of FM19G11.

[1] = tested on: Sox2, Oct4, Nanog, TGF-alpha, Notch1; assay: expression of undifferentiated state markers in epSPCs (sqPCR, Western blot); assay type: cell-based, rat
Protocol: The primary culture of adult spinal cord ependymal neural progenitors (epSPC) was performed according to the conditions already set forth in Example 35.1.
Detection of the transcriptional and transductional expression levels of genes responsible for maintaining the undifferentiated state, Sox2, Oct4, Nanog, TGF-alpha: Total RNA was isolated using the commercial kit RNAeasy (Qiagen) and following the manufacturer's instructions. 1 µg of total RNA of each sample was retrotranscribed using the commercial kit Reverse Transcription Reagent (Applied Biosystem). The semiquantitative polymerase chain reaction (sqPCR) was carried out using the primers detailed below, for the amplification of the messenger RNAs of Sox2, Oct4, Nanog, TGF-alpha and GAPDH. The sqPCR was developed in an Eppendorf thermal cycler in a final volume of 50 µl, using 1 U of Taq Polymerase, 40 ng of cDNA (equivalent amount of total RNA), and 300 nM of each primer. The program chosen for the amplification was: [95°C, 3 min] x1, [55°C, 30 sec, 72°C, 5 min, 95°C 30 sec] x 35 and 72°C 10 min. The expression levels were viewed in a 1% agarose gel in 1x TAE buffer stained with ethidium bromide. The changes of expression due to the loading difference were corrected by the differential expression of the GAPDH constitutive expression gene. The experiments were performed in triplicate (with cells from three different rats).
The levels of proteins of the undifferentiated state markers Sox2, Oct4, Nanog and Notch1 were determined by immunological analysis (Western Blot) following the methodology described in Example 35.1. The primary antibodies for the detection of Sox2, Oct4, Nanog and Notch1 were acquired from Abcam (UK) and the expression of beta-actin (antibody acquired in Sigma Aldrich Co., UK) served as a loading control.

mTOR = assay: activation kinetics of mTOR signaling pathway, HCT116/p53-/-; assay type: cell-based, human; conditions: 0.5 µM
Protocol: Due to the crucial role of p53 as a tumor-suppressing agent, it was analyzed in HCT116 cells how FM19G11 affected the activation kinetics of proteins involved in favoring cell cycle progress, specifically the mTOR cell signaling pathway. An increase of cell progress can be due to replicative stress which generates DNA damage (Bartkova, J, Horejsi, Z, Koed, K, Kramer, A, Tort, F, Zieger, K et al., (2005) DNA damage response as a candidate anti-cancer barrier in early human tumorigenesis. Nature 434: 864-70; Bartkova, J, Rezaei, N, Liontos, M, Karakaidos, P, Kletsas, D, Issaeva, N et al., (2006) Oncogene-induced senescence is part of the tumorigenesis barrier imposed by DNA damage checkpoints. Nature 444: 633-7; Di Micco, R, Fumagalli, M, Cicalese, A, Piccinin, S, Gasparini, P, Luise, C et al., (2006) Oncogene-induced senescence is a DNA damage response triggered by DNA hyper-replication. Nature 444: 638-42), it was explored if the DDR triggered by FM19G11 was related to an increase of the cell cycle progress signal modulated by the mTOR signaling pathway. […]

SMILES: Cc1ccc(C(=O)COC(=O)c2cccc(NC(=O)c3ccc([N+](=O)[O-])cc3[N+](=O)[O-])c2)cc1 [FM19G11, 2-oxo-2-(p-tolyl)ethyl 3-((2,4-dinitro)benzamido)benzoate]
- IC50 (HIF): 0.08 µM
- IC50 (HIF; 6 h, read-out: IC50 from dose response curve (Figure 2 B)): 0.08 µM
- IC50 (HIF; read-out: IC50 HRE (µM)): 0.08 µM
- messenger RNA of Sox2 and Oct4 and their target genes Nanog and TGF-α ([1]; 500 nM, 48 hours, 1% O2): down-regulation
- expression of Sox2, Oct4, Nanog and Notch1 ([1]; 500 nM, 48 hours, normoxic (~20% O2)): significantly induces
- expression of both proteins, Sox2 and Oct4 ([1]; increasing concentrations, 1% O2): inhibits in a dose-dependent manner
- expression of the two isoforms of HIFα, p300, Sox2, Oct3/4 in ependymal cells ([1]; physical hypoxic conditions): decrease
- mTOR phosphorylation (fold change) (mTOR): ≤ 2
